pKd: −log10 of the molar value.
Key:
[1] = target: T1, MLKL (Homo sapiens, UniProt Q8NB16); assay: Measurement of binding affinity with MLKL receptor (competitive binding assay, Kd); set-up: made in house; host or cells: HEK 293 cell line (T7 phage in E. coli BL21-derived host is also described)
T1 sequence (Q8NB16 1-471): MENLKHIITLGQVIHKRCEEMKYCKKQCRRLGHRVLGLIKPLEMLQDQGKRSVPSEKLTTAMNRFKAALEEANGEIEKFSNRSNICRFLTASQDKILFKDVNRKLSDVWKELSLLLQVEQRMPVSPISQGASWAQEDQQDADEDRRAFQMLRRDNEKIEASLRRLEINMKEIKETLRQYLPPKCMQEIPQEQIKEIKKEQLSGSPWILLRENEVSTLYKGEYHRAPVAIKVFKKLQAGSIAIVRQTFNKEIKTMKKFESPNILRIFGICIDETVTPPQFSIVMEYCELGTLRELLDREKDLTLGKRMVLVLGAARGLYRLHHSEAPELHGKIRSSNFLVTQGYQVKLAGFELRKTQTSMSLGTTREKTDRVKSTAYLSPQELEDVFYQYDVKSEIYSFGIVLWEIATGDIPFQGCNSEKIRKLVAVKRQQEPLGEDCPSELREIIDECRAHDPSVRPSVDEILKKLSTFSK
Summary of the method: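 Kd comes from a bead-based competition format: compound-dependent loss of DNA-tagged, HEK 293-expressed MLKL capture, measured as eluate kinase by qPCR. Final DMSO is 0.9%.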

[2] = tested on: FADD−/− Jurkat cells; assay: Necroptosis inhibition assay, TNF-α-induced necroptosis (CellTiter-Glo 2.0); assay type: cell-based, human; conditions: TNF-α 15 ng/mL; for Necroptosis inhibition assay (Rescue %) 1 μM: compound 1 μM; for Necroptosis inhibition assay (Rescue %) 10 μM: compound 10 μM
Summary of the method: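 Compound is added to cells at final concentrations of 0.1, 1 and 10 μM and left 30 minutes at room temperature. Necroptosis is induced with 15 ng/mL TNF-α, culture continues 20 to 24 hours at 37° C, and ATP-based luminescence reports viability.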

[3] = target: T1, MLKL; assay: MLKL degradation assay in HepG2 cell line (western blot); assay type: cell-based; set-up: endogenous in cells; host or cells: HepG2 or HaCaT; conditions: cell line not given; for Degradation assay (Degradation %) 1 μM: compound 1 μM; for Degradation assay (Degradation %) 10 μM: compound 10 μM
Summary of the method: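 Chemiluminescent western blot signal reports remaining MLKL protein in HepG2 cells after 20-24 h treatment with compound at a final 1 or 10 μM. Equal protein (10-15 μg, BCA) is loaded per lane.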

Row | SMILES | pKd [1] | Necroptosis inhibition assay (Rescue %) 1 μM [2] [%] | Necroptosis inhibition assay (Rescue %) 10 μM [2] [%] | Degradation assay (Degradation %) 1 μM [3] [%] | Degradation assay (Degradation %) 10 μM [3] [%] | Necroptosis inhibition assay (Rescue %) 1 μM ([2]; FADD−/− Jurkat cells) [%] | Necroptosis inhibition assay (Rescue %) 10 μM ([2]; FADD−/− Jurkat cells) [%]
1 | Nc1ncc(-c2cnn(C3CCN(CCC4CCN(C(=O)COc5cccc6c5C(=O)N(C5CCC(=O)NC5=O)C6=O)CC4)CC3)c2)nc1C(=O)O[C@@H](C(=O)Nc1ccc(F)cc1)c1ccccc1 (stereo partly drawn) [TDH-200, (R)-2-((4-fluorophenyl)amino)-2-oxo-1-phenylethyl 3-amino-6-(1-(1-(2-(1-(2-((2-(2,6-dioxopiperidin-3-yl)-1,3-dioxoisoindolin-4-yl)oxy)acetyl)piperidin-4-yl)ethyl)piperidin-4-yl)-1H-pyrazol-4-yl)pyrazine-2-carboxylate] | 9.00 | 76.41 | 44.64 | 74.03 | 60.19 |  | 
2 | Nc1ncc(-c2cnn(C3CCN(CCC4CCN(C(=O)CCc5cccc6c5CN(C5CCC(=O)NC5=O)C6=O)CC4)CC3)c2)nc1C(=O)O[C@@H](C(=O)Nc1ccc(F)cc1)c1ccccc1 (stereo partly drawn) [TDH-385, (R)-2-((4-fluorophenyl)amino)-2-oxo-1-phenylethyl 3-amino-6-(1-(1-(2-(1-(3-(2-(2,6-dioxopiperidin-3-yl)-1-oxoisoindolin-4-yl)propanoyl)piperidin-4-yl)ethyl)piperidin-4-yl)-1H-pyrazol-4-yl)pyrazine-2-carboxylate] | 9.12 | 53.62 | 14.09 | 94.85 | 85.11 |  | 
3 | Nc1ncc(-c2cnn(C3CCN(C(=O)CC4CCN(C(=O)CNc5cccc6c5C(=O)N(C5CCC(=O)NC5=O)C6=O)CC4)CC3)c2)nc1C(=O)O[C@@H](C(=O)Nc1ccc(F)cc1)c1ccccc1 (stereo partly drawn) [TDH-339, (R)-2-((4-fluorophenyl)amino)-2-oxo-1-phenylethyl 3-amino-6-(1-(1-(2-(1-((2-(2,6-dioxopiperidin-3-yl)-1,3-dioxoisoindolin-4-yl)glycyl)piperidin-4-yl)acetyl)piperidin-4-yl)-1H-pyrazol-4-yl)pyrazine-2-carboxylate] | 7.89 | 12.23 | 12.31 | 71.36 | 51.92 |  | 
4 | Nc1ncc(-c2cnn(C3CCN(CCOCCOCCNC(=O)COc4ccc5c(c4)C(=O)N(C4CCC(=O)NC4=O)C5=O)CC3)c2)nc1C(=O)O[C@@H](C(=O)Nc1ccc(F)cc1)c1ccccc1 (stereo partly drawn) [TDH-167, (R)-2-((4-fluorophenyl)amino)-2-oxo-1-phenylethyl 3-amino-6-(1-(1-(2-(2-(2-(2-((2-(2,6-dioxopiperidin-3-yl)-1,3-dioxoisoindolin-5-yl)oxy)acetamido)ethoxy)ethoxy)ethyl)piperidin-4-yl)-1H-pyrazol-4-yl)pyrazine-2-carboxylate] | 8.77 | 45.5 | 38.58 | 36.7 | 60.91 |  | 
5 | Nc1ncc(-c2cnn([C@H]3CCN(CCOCCOCCNC(=O)CNc4ccc5c(c4)C(=O)N(C4CCC(=O)NC4=O)C5=O)C3)c2)nc1C(=O)OC(C(=O)Nc1ccc(F)cc1)c1ccccc1 (stereo partly drawn) [TDH-264, 2-((4-fluorophenyl)amino)-2-oxo-1-phenylethyl 3-amino-6-(1-((3S)-1-(2-(2-(2-(2-((2-(2,6-dioxopiperidin-3-yl)-1,3-dioxoisoindolin-5-yl)amino)acetamido)ethoxy)ethoxy)ethyl)pyrrolidin-3-yl)-1H-pyrazol-4-yl)pyrazine-2-carboxylate] | 8.47 | 23.38 | 40.72 | 65.05 | 53.98 |  | 
6 | Nc1ncc(-c2cnn(C3CCN(C4CC5(CCN(CC6CCN(C(=O)C7CCN(C8=CC(=O)N(C9CCC(=O)NC9=O)C8=O)CC7)CC6)CC5)C4)CC3)c2)nc1C(=O)O[C@@H](C(=O)Nc1ccc(F)cc1)c1ccccc1 (stereo partly drawn) [TDH-528, (R)-2-((4-fluorophenyl)amino)-2-oxo-1-phenylethyl 3-amino-6-(1-(1-(7-((1-(1-(1-(2,6-dioxopiperidin-3-yl)-2,5-dioxo-2,5-dihydro-1H-pyrrol-3-yl)piperidine-4-carbonyl)piperidin-4-yl)methyl)-7-azaspiro[3.5]nonan-2-yl)piperidin-4-yl)-1H-pyrazol-4-yl)pyrazine-2-carboxylate] | 9.74 |  |  | 63.93 | 56.11 | 40.69 | 0.38
7 | Nc1ncc(-c2cnn(C3CCN(C(=O)C4CCN(C(=O)CCc5cccc6c5CN(C5CCC(=O)NC5=O)C6=O)CC4)CC3)c2)nc1C(=O)O[C@@H](C(=O)Nc1ccc(F)cc1)c1ccccc1 (stereo partly drawn) [TDH-388, (R)-2-((4-fluorophenyl)amino)-2-oxo-1-phenylethyl 3-amino-6-(1-(1-(1-(3-(2-(2,6-dioxopiperidin-3-yl)-1-oxoisoindolin-4-yl)propanoyl)piperidine-4-carbonyl)piperidin-4-yl)-1H-pyrazol-4-yl)pyrazine-2-carboxylate] | 8.64 | 22.66 | 22.49 | 68.53 | 80.04 |  | 
8 | Nc1ncc(-c2cnn(C3CCN(CCCN4CCN(C(=O)CCc5ccc6c(c5)CN(C5CCC(=O)NC5=O)C6=O)CC4)CC3)c2)nc1C(=O)O[C@@H](C(=O)Nc1ccc(F)cc1)c1ccccc1 (stereo partly drawn) [TDH-476, (R)-2-((4-fluorophenyl)amino)-2-oxo-1-phenylethyl 3-amino-6-(1-(1-(3-(4-(3-(2-(2,6-dioxopiperidin-3-yl)-1-oxoisoindolin-5-yl)propanoyl)piperazin-1-yl)propyl)piperidin-4-yl)-1H-pyrazol-4-yl)pyrazine-2-carboxylate] | 9.49 |  |  | 87.94 | 73.34 | 47.52 | 25.23
9 | Nc1ncc(-c2cnn(C3CCN(CCOC4CCN(C(=O)c5ccc6c(c5)CN(C5CCC(=O)NC5=O)C6=O)CC4)CC3)c2)nc1C(=O)O[C@@H](C(=O)Nc1ccc(F)cc1)c1ccccc1 (stereo partly drawn) [TDH-549, (R)-2-((4-fluorophenyl)amino)-2-oxo-1-phenylethyl 3-amino-6-(1-(1-(2-((1-(2-(2,6-dioxopiperidin-3-yl)-1-oxoisoindoline-5-carbonyl)piperidin-4-yl)oxy)ethyl)piperidin-4-yl)-1H-pyrazol-4-yl)pyrazine-2-carboxylate] | 9.19 |  |  | 84.54 | 34.92 | 35.84 | 25.21
